Reference: patent US20220040230A1, “COMPOSITIONS AND METHODS FOR IMMUNOTHERAPIES” (The Regents of the University of California, priority 2018, published 2022)

Columns and labels:
OSCCs = assay: Chemotherapy-mediated cell death of OSCCs; type: cell-based, human
OSCSCs = assay: Chemotherapy-mediated cell death of OSCSCs; type: cell-based, human
MP2 [1] = assay: Propidium iodide cell death assay, MP2; type: cell-based, human; details: NAC (20 nM) 24 hours before paclitaxel
Procedure: (§1) P-values of <0.05 were obtained for differences between MP2 vs. PL12 and Capan at the concentrations of 10 nM, 200 nM, 600 nM, 1000 nM and […] of Paclitaxel (n=2 per each experimental condition) (FIG. 25A).

[2] = system: NK-supernatant differentiated MP2 tumors; assay: Propidium iodide cell death assay, NK-supernatant differentiated MP2; type: cell-based, human
Procedure: as §1
Differentiation of MP2 tumors was conducted as described previously. NK cells were treated with a combination of anti-CD16mAb (3 μg/mL) and IL-2 (1,000 U/mL) for 18 hours before supernatants were removed and used for differentiation experiments. The amounts of IFN-γ produced by activated NK cells were assess with IFN-γ ELISA (Biolegend, CA, USA). MP2 cells were differentiated with gradual daily addition of increasing amounts of NK cell supernatants (of corresponding treatments). On average, to induce differentiation, a total of 3,500 pg of IFN-γ containing supernatants were added for 4 days to induce differentiation and resistance of MP2 tumor cells to NK cell-mediated cytotoxicity. Afterwards, target cells were washed with 1×PBS, detached and used for experiments.

PL12 = assay: Propidium iodide cell death assay, PL12
Capan = assay: Propidium iodide cell death assay, Capan
MP2 [3] = assay: Surface expression on MP2 by flow cytometry; type: cell-based, human; details: 24 h
Procedure: MP2 cells were left untreated or treated with rhTNF-α (20 ng/mL), rhIFN-γ (200 U/mL) or the combination of rhTNF-α (20 ng/mL) and rhIFN-γ (200 U/mL) for 24 h. Afterwards, the cells were detached and the surface expression of CD44, CD54, MHC-class I and B7H1 were assessed using PE conjugated antibodies followed by flow cytometric analysis. Isotype controls were used as controls (FIG. 14A). MP2 and Capan cells were treated as described in FIG. 14A, and were detached from the tissue culture plates, labeled with ^51Cr and used in a standard 4-hour ^51Cr release assay using IL-2 (1000 U/mL) treated NK cells. Pre-treatment of NK cells with IL-2 (1000 U/ml) were carried out for 18-24 hours. Percent cytotoxicity was determined at different effector to target ratio and the lytic units 30/10^6 cells were determined using inverse number of NK cells required to lyse 30% of the tumor cells×100 (FIG. 14B).
Staining was performed by labeling the cells with antibodies as described previously. Briefly, the cells were washed twice with ice-cold PBS/1% BSA. Predetermined optimal concentrations of specific human flow cytometric antibodies were added to 1×10^4 cells in 50 μl of cold-PBS/1% BSA and cells were incubated on ice for 30 min. […] Flow cytometry analysis was performed using Beckman Coulter Epics XL cytometer (Brea, Calif.) and results were analyzed in FlowJo vX software (Ashland, Oreg.).

MP2 [4] = assay: 4-hour 51Cr release cytotoxicity / ADCC assay against MP2; type: cell-based, human; details: IL-2 treated NK cells; tumor cells treated 24 h
Procedure: The target cells (5×10^5) were labeled with 50 μCi ^51Cr (Perkin Elmer, Santa Clara, Calif.) and chromated for 1 hour. Following incubation, target cells were washed once to remove excess unbound ^51Cr. […] Following incubation, target cells were washed again to remove excess unbound antibody and ^51Cr. Labeled target cells were culture with effector cells and the cytotoxicity against target cells were assessed using ^51Cr release cytotoxicity assay.
^51Cr Release Cytotoxicity Assay ^51Cr was purchased from Perkin Elmer (Santa Clara, Calif.). Standard ^51Cr release cytotoxicity assays were used to determine NK cell cytotoxic function in the experimental cultures. […] After a 4-hour incubation period, the supernatants were harvested from each sample and counted for released radioactivity using the gamma counter. Total (containing ^51Cr labeled target cells) and spontaneous (supernatants of target cells alone) release values were measured and used to calculate the percentage specific cytotoxicity. The percentage specific cytotoxicity was calculated using the following formula: […]
Lu30/10^6 is calculated by using the inverse of the number of effector cells needed to lyse 30% of target cells×100.
The ^51Cr release assay was performed as described previously. […] The percentage specific cytotoxicity was calculated using the following formula: […]

[5] = NAC (20 nM) 24 hours before paclitaxel

For `N.N.[Cl][Pt][Cl]` [CDDP, cis-dichlorodiammineplatinum], the “cell death of patient-derived differentiated OSCCs” value (OSCCs) was “higher cell death” and the “cell death of stem-like/poorly differentiated OSCSCs” value (OSCSCs) was “minimal effects”.

`CC(=O)N[C@@H](CS)C(=O)O` [NAC, N-Acetyl Cysteine] was tested, and the “effect of NAC on paclitaxel mediated cell death of MP2” value (MP2 [1]) was “increased paclitaxel mediated cell death”, the “effect of NAC on cell death of NK-supernatant differentiated MP2” value [2, 5] was “increased cell death” and the “effect of NAC on paclitaxel mediated cell death of PL12” value (PL12; [5]) was “increased paclitaxel mediated cell death”. For the same molecule, the “effect of NAC on paclitaxel mediated cell death of Capan” value (Capan; [5]) was “increased paclitaxel mediated cell death”.

`CC(=O)O[C@H]1C(=O)[C@@]2(C)[C@H]([C@H](OC(=O)c3ccccc3)[C@]3(O)C[C@H](OC(=O)[C@H](O)[C@@H](NC(=O)c4ccccc4)c4ccccc4)C(C)=C1C3(C)C)[C@]1(OC(C)=O)CO[C@@H]1C[C@@H]2O` [paclitaxel] was tested, and the “paclitaxel mediated cell death of NK-supernatant differentiated MP2” value [2] was “susceptibility to paclitaxel”, the “cell death of patient-derived differentiated OSCCs” value (OSCCs) was “higher cell death” and the “cell death of stem-like/poorly differentiated OSCSCs” value (OSCSCs) was “minimal effects”. For the same molecule, the “paclitaxel mediated cell death of PL12” value (PL12; compared with MP2) was “higher levels of cell death” and the “paclitaxel mediated cell death of Capan” value (Capan; compared with MP2) was “higher levels of cell death”.

In the case of “rhIFN-γ: Recombinant human IFN-γ from Biolegend”, the “surface expression of B7H1 on MP2” value (MP2 [3]) is reported as “upregulate B7H1” and the “surface expression of CD54, MHC-class I, B7H1 and CD44 on MP2” value (MP2 [3]; rhTNF-α 20 ng/mL, rhIFN-γ 200 U/mL) is reported as “increase surface expression of CD54 and MHC-class I”.

B1: rhIFN-γ: Recombinant human IFN-γ from Biolegend (protein, UniProt P01579 24-161, looked up)
Interferon gamma: QDPYVKEAENLKKYFNAGHSDVADNGTLFLGILKNWKEESDRKIMQSQIVSFYFKLFKNFKDDQSIQKSVETIKEDMNVKFFNSNKKKRDDFEKLTNYSVTDLNVQRKAIHELIQVMAELSPAAKTGKRKRSQMLFRG
With B1 the “resistance of MP2 against NK cell mediated cytotoxicity” value (MP2 [4]) was “significant resistance”.
